# “Also recorded” adds a separate entry of the source.
# Assay: Blood metabolites after 4-day transition to standard diet supplemented with KDE (Experiment 4a)
# Type: in vivo, VM/Dk mice
# Details: for blood ketone levels: vs baseline
# Description: Food Intake and Ketone Diester Administration: Standard diet dry food (2018 Teklad Global 18% Protein Rodent Diet, Harlan) was mixed with deionized water (1 g dry food/mL deionized water) into a consistent paste and placed on a 100×15 mm dish. Food intake was tracked daily at the same time (7:00-9:00) and replaced every other day to ensure fresh food. Due to sinusoidal/oscillatory changes in food intake observed every other day (2-day pattern), a 4-day (2×2-day pattern) average was taken at EOL and baseline to calculate changes in anorexic symptoms. KDE was chemically synthesized with physical properties, preparation, and analysis described previously. For evaluation of KDE effect on anorexia, food intake was tracked daily at the same time (7:00-9:00). […] Consequently, upon VM-M3 inoculation, KDE+VM-M3 received ad libitum 0% KDE/weight day 1, 5% KDE day 2, 10% KDE day 3, 15% KDE day 4, 20% KDE day 5, 25% KDE day 6, and 30% KDE day 7 through 21 on top of HPSD. VM-M3 and Sham received HPSD ad libitum. As pilot work indicated potential water evaporation in food paste in ventilated cages, dehydration standard curve was calculated across various volumes of plated food (5, 10, 25.0, 50.0, 100 g/food) with and without KDE over a two-day period. Standard curve equation [water evaporated=0.2472 (original grams of water)+1.364] was used to correct for amount of dehydration prior to calculating caloric intake. For LPS experiments, 1×4 mL/kg KDE gavage or 1×4 mL/kg water gavage were administered for KDE+LPS and LPS-only, respectively. Ab libitum food intake was tracked daily during initial analysis with caloric restriction reported as the percent reduction in 24-hour caloric intake from pre- to post-LPS administration. Pair-feeding was conducted during subsequent analysis. […]
# Metabolic Biomarkers: Blood glucose and R β-hydroxybutyrate were measured using Precision Xtra™ Blood Glucose & Ketone Monitoring System (Abbott Laboratories, Abbott Park, IL). Blood lactate concentration was measured using Lactate Plus Lactate Meter (Nova Biomedical). IGF-1 and Insulin were relabeled for blinded analysis and subsequently analyzed using Luminex 100 system (Luminex, Austin, TX) with R&D Systems Mouse 1-Plex Luminex Assay (R&D Systems, Minneapolis, MN) and Milliplex Mouse Multiplex Kit (Millipore, St. Charles, MO), respectively, using manufacturer's protocol.
# To determine whether KDE could alter systemic metabolism, blood metabolites were measured at baseline following a standard diet and after a 4-day transition to a standard diet supplemented with 20% KDE, 25% KDE, or 30% KDE. […] To determine whether KDE could alter metabolism in CACS, blood ketones, glucose, and lactate were measured weekly. […] Thus, to determine if KDE altered tumor burden, in vivo bioluminescence imaging was analyzed weekly.
smiles,measurement,setting,value
"CC(=O)CC(=O)OCCC(C)OC(=O)CC(C)=O (stereo not shown) [KDE, R/S 1,3-butanediol acetoacetate diester]",blood ketone levels,"20% KDE in standard diet, 4-day transition",significant elevations
same,blood ketone levels,"30% KDE in standard diet, 4-day transition",significant elevations; also recorded: highest ketone elevations
same,blood glucose levels,"30% KDE in standard diet, compared with 20% and 25% KDE",greatest reduction in glucose
same,blood glucose levels,"all KDE groups (20%, 25%, 30% KDE in standard diet), 4-day transition",significant reductions
